In this test the target is T1, PE-labeled human PD-L1-Ig binding to Jurkat cell line over-expressing human PD-1 (Jurkat-PD-1) (Homo sapiens, UniProt Q15116).
T1 construct: expressed in transfected cells; host or cells: Jurkat
In words: Jurkat-PD-1 Cell Binding High-Content Screening Assay (CBA): Method 1. The settings on record: Jurkat-hPD-1 cells, PE-labeled PD-L1-Ig 20 nM final; read-out: Jurkat HPDL1 PD1 IC50 (uM) (Method 1).

Bridge positions count the residues as written; N and C are the ends. Square brackets hold non-standard residues; d marks the D form. Peptide text beside a SMILES is read from it. * marks the point of attachment. ξ: configuration not given here. Tyr(3-NO2) = N[C@@H](Cc1ccc(O)c([N+](=O)[O-])c1)C(=O)O; Bip = N[C@@H](Cc1ccc(-c2ccccc2)cc1)C(=O)O; Phe(3-CN) = N#Cc1cccc(C[C@H](N)C(=O)O)c1; Phe(3-OMe) = COc1cccc(C[C@H](N)C(=O)O)c1; Phe(3-Me) = Cc1cccc(C[C@H](N)C(=O)O)c1; Phe(2-F) = N[C@@H](Cc1ccccc1F)C(=O)O; Val(3-OH) = CC(C)(O)[C@H](N)C(=O)O; 3Pal = N[C@@H](Cc1cccnc1)C(=O)O; 4Pal = N[C@@H](Cc1ccncc1)C(=O)O; Cha = N[C@@H](CC1CCCCC1)C(=O)O; Cit = NC(=O)NCCC[C@H](N)C(=O)O; Ile(3ξ) = CCC(C)[C@H](N)C(=O)O; Thr(3ξ) = CC(O)[C@H](N)C(=O)O; Carboxymethyl = O=C(O)C*; NMeA = CN[C@@H](C)C(=O)O; Orn = NCCC[C@H](N)C(=O)O; Pra = C#CC[C@H](N)C(=O)O; Dab = NCC[C@H](N)C(=O)O; Dap = NC[C@H](N)C(=O)O

What is called IC50 is the midpoint of a concentration-inhibition curve.

T1 sequence (Q15116 25-288): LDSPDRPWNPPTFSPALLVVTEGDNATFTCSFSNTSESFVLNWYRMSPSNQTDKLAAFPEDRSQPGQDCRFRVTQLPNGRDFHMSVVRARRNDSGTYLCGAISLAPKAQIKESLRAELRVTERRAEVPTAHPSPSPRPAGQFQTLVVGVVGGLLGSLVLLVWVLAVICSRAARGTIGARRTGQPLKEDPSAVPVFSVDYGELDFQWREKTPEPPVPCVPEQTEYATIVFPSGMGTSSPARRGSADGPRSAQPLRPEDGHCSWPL

For the compound `CC(C)C[C@@H]1NC(=O)[C@H](CCCNC(=N)N)NC(=O)[C@@H](CC(C)C)NC(=O)[C@H](C)N(C)C(=O)[C@H](CCCNC(=N)N)NC(=O)[C@H](Cc2ccc(-c3ccccc3)cc2)NC(=O)[C@H](C(C)C)NC(=O)[C@H](Cc2c[nH]c3ccccc23)NC(=O)[C@H](CC(=O)O)NC(=O)[C@H](Cc2ccc(O)cc2)NC(=O)[C@H](Cc2cccnc2)NC(=O)CSC[C@@H](C(=O)N[C@@H](C)C(N)=O)NC(=O)[C@H](CO)NC(=O)[C@H](C(C)C)NC1=O` [Compound 1036] ({CH2CO}-[3Pal]YDWV[Bip]R[NMeA][dL]RLVSCA-NH2; thioether N-14), the IC50 amounted to 0.05 µM.

As for `CC(C)C[C@@H]1NC(=O)[C@H](CCN)NC(=O)[C@@H](CC(C)C)NC(=O)[C@H](C)N(C)C(=O)[C@H](Cc2cnc[nH]2)NC(=O)[C@H](Cc2ccc(-c3ccccc3)cc2)NC(=O)[C@H](C(C)C)NC(=O)[C@H](Cc2c[nH]c3ccccc23)NC(=O)[C@H](CC(=O)O)NC(=O)[C@H](Cc2ccccc2F)NC(=O)[C@H](CN)NC(=O)CSC[C@@H](C(=O)N[C@@H](C)C(N)=O)NC(=O)[C@H]([C@@H](C)O)NC(=O)[C@H](C(C)C)NC1=O` [Compound 1425] ({CH2CO}-[Dap][Phe(2-F)]DWV[Bip]H[NMeA][dL][Dab]LVTCA-NH2; thioether N-14), the IC50 worked out at 0.14 µM.

Regarding `Cc1cccc(C[C@@H]2NC(=O)[C@H](Cc3cccnc3)NC(=O)CSC[C@@H](C(=O)NCC(N)=O)NC(=O)[C@H](CO)NC(=O)[C@H](C(C)C)NC(=O)[C@H](CC(C)C)NC(=O)[C@H](CC(N)=O)NC(=O)[C@@H](CC(C)C)NC(=O)[C@H](C)N(C)C(=O)[C@H](C(C)C)NC(=O)[C@H](Cc3ccc(-c4ccccc4)cc3)NC(=O)[C@H](CC(C)C)NC(=O)[C@H](Cc3c[nH]c4ccccc34)NC(=O)[C@H](CC(=O)O)NC2=O)c1` [Compound 1520] ({CH2CO}-[3Pal][Phe(3-Me)]DWL[Bip]V[NMeA][dL]NLVSCG-NH2; thioether N-14), the concentration for half-maximal inhibition (IC50) amounted to 0.01 µM.

Consider `COc1cccc(C[C@@H]2NC(=O)[C@H](CN)NC(=O)CSC[C@@H](C(=O)N[C@@H](C)C(N)=O)NC(=O)[C@H]([C@@H](C)O)NC(=O)[C@H](C(C)C)NC(=O)[C@H](CC(C)C)NC(=O)[C@H](CCN)NC(=O)[C@@H](CC(C)C)NC(=O)[C@H](C)N(C)C(=O)[C@H](C(C)C)NC(=O)[C@H](Cc3ccc(-c4ccccc4)cc3)NC(=O)[C@H](C(C)C)NC(=O)[C@H](Cc3c[nH]c4ccccc34)NC(=O)[C@H](CC(=O)O)NC2=O)c1` [Compound 1427] ({CH2CO}-[Dap][Phe(3-OMe)]DWV[Bip]V[NMeA][dL][Dab]LVTCA-NH2; thioether N-14), for which the IC50 came to 0.11 µM.

In the case of `CC(C)C[C@@H]1NC(=O)[C@H](CCN)NC(=O)[C@@H](CC(C)C)NC(=O)[C@H](C)N(C)C(=O)[C@H](CCCNC(N)=O)NC(=O)[C@H](Cc2ccc(-c3ccccc3)cc2)NC(=O)[C@H](C(C)C)NC(=O)[C@H](Cc2c[nH]c3ccccc23)NC(=O)[C@H](CC(=O)O)NC(=O)[C@H](Cc2cccc(C#N)c2)NC(=O)[C@H](CN)NC(=O)CSC[C@@H](C(=O)N[C@@H](C)C(N)=O)NC(=O)[C@H]([C@@H](C)O)NC(=O)[C@H](C(C)C)NC1=O` [Compound 1403] ({CH2CO}-[Dap][Phe(3-CN)]DWV[Bip][Cit][NMeA][dL][Dab]LVTCA-NH2; thioether N-14), the IC50 amounted to 0.13 µM.

Take `CC(C)C[C@@H]1NC(=O)[C@H](Cc2c[nH]c3ccccc23)NC(=O)[C@H](CC(=O)O)NC(=O)[C@H](Cc2ccc(O)cc2)NC(=O)[C@H](Cc2ccccc2)NC(=O)CSC[C@@H](C(=O)NCC(N)=O)NC(=O)[C@H](CO)NC(=O)[C@H](C(C)C)NC(=O)[C@H](CC(C)C)NC(=O)[C@H](CCN)NC(=O)[C@@H](CC(C)C)NC(=O)[C@H](C)N(C)C(=O)[C@H](CCC(=O)O)NC(=O)[C@H](Cc2ccc(-c3ccccc3)cc2)NC1=O` [Compound 1513] ({CH2CO}-FYDWL[Bip]E[NMeA][dL][Dab]LVSCG-NH2; thioether N-14): the concentration for half-maximal inhibition (IC50) was 0.02 µM.

`Cc1cccc(C[C@@H]2NC(=O)[C@H](CC(=O)O)NC(=O)[C@H](Cc3ccc(OCC(=O)O)cc3)NC(=O)[C@H](Cc3ccncc3)NC(=O)CSC[C@@H](C(=O)N[C@@H](CCN)C(N)=O)NC(=O)[C@H](CO)NC(=O)[C@H](C(C)(C)O)NC(=O)[C@H](CC3CCCCC3)NC(=O)[C@H](CCN)NC(=O)[C@@H](CC(C)C)NC(=O)[C@H](C)N(C)C(=O)[C@H](CCCNC(N)=O)NC(=O)[C@H](Cc3ccc(-c4ccccc4)cc3)NC(=O)[C@H](Cc3ccc(OCC(=O)O)cc3)NC2=O)c1` [Compound 2201] ({CH2CO}-[4Pal]Y(Carboxymethyl)D[Phe(3-Me)]Y(Carboxymethyl)[Bip][Cit][NMeA][dL][Dab][Cha][Val(3-OH)]SC[Dab]-NH2; thioether N-14): the IC50 was found to be 0.01 µM.

`CC(C)C[C@@H]1NC(=O)[C@H](CCN)NC(=O)[C@@H](CC(C)C)NC(=O)[C@H](C)N(C)C(=O)[C@H](CCC(=O)O)NC(=O)[C@H](Cc2ccc(-c3ccccc3)cc2)NC(=O)[C@H](C(C)C)NC(=O)[C@H](Cc2c[nH]c3ccccc23)NC(=O)[C@H](CC(=O)O)NC(=O)[C@H](Cc2ccc(O)cc2)NC(=O)[C@H](CC(N)=O)NC(=O)CSC[C@@H](C(=O)N[C@@H](C)C(N)=O)NC(=O)[C@H](CO)NC(=O)[C@H](C(C)C)NC1=O` [Compound 1248] ({CH2CO}-NYDWV[Bip]E[NMeA][dL][Dab]LVSCA-NH2; thioether N-14): the IC50 is 0.07 µM.

`CC(C)C[C@@H]1NC(=O)[C@H](CCN)NC(=O)[C@@H](CC(C)C)NC(=O)[C@H](C)N(C)C(=O)[C@H](Cc2cnc[nH]2)NC(=O)[C@H](Cc2ccc(-c3ccccc3)cc2)NC(=O)[C@H](C(C)C)NC(=O)[C@H](Cc2c[nH]c3ccccc23)NC(=O)[C@H](CC(=O)O)NC(=O)[C@H](Cc2ccc(O)cc2)NC(=O)[C@H](CC(N)=O)NC(=O)CSC[C@@H](C(=O)N[C@@H](C)C(N)=O)NC(=O)[C@H]([C@@H](C)O)NC(=O)[C@H](C(C)C)NC1=O` [Compound 1302] ({CH2CO}-NYDWV[Bip]H[NMeA][dL][Dab]LVTCA-NH2; thioether N-14): the IC50 is 0.02 µM.

`C#CC[C@H](NC(=O)[C@H](CCN)NC(=O)[C@@H]1CSCC(=O)N[C@@H]([C@@H](C)O)C(=O)N[C@@H](Cc2ccc(OCC(=O)O)cc2)C(=O)N[C@@H](CC(=O)O)C(=O)N[C@@H](Cc2cccc(C)c2)C(=O)N[C@@H](Cc2ccc(OCC(=O)O)cc2)C(=O)N[C@@H](Cc2ccc(-c3ccccc3)cc2)C(=O)N[C@@H](Cc2ccc(OCC(=O)O)cc2)C(=O)N(C)[C@@H](C)C(=O)N[C@H](CC(C)C)C(=O)N[C@@H](CCN)C(=O)N[C@@H](CC2CCCCC2)C(=O)N[C@@H](C(C)(C)O)C(=O)N[C@@H](CCC(=O)O)C(=O)N1)C(=O)O` [Compound 1937] ({CH2CO}-TY(Carboxymethyl)D[Phe(3-Me)]Y(Carboxymethyl)[Bip]Y(Carboxymethyl)[NMeA][dL][Dab][Cha][Val(3-OH)]EC[Dab][Pra]-OH; thioether N-14): the IC50 was found to be 0.07 µM.

For the compound `CCC(C)[C@@H]1NC(=O)[C@H](Cc2ccc(-c3ccccc3)cc2)NC(=O)[C@H](CC(C)C)NC(=O)[C@H](Cc2c[nH]c3ccccc23)NC(=O)[C@H](CC(=O)O)NC(=O)[C@H](Cc2ccc(OCC(=O)O)cc2)NC(=O)[C@H](C(C)O)NC(=O)CSC[C@@H](C(=O)N[C@@H](CC(N)=O)C(=O)O)NC(=O)[C@H](CC(=O)O)NC(=O)[C@H](C(C)C)NC(=O)[C@H](CC(C)C)NC(=O)[C@H](CCN)NC(=O)[C@@H](CC(C)C)NC(=O)[C@H](C)N(C)C1=O` (stereo partly drawn) [Compound 2225] ({CH2CO}-[Thr(3ξ)]Y(Carboxymethyl)DWL[Bip][Ile(3ξ)][NMeA][dL][Dab]LVDCN-OH; thioether N-14), the IC50 is 0.08 µM.

Regarding `CC(C)C[C@@H]1NC(=O)[C@H](CCCN)NC(=O)[C@@H](CC(C)C)NC(=O)[C@H](C)N(C)C(=O)[C@H](CCCNC(=N)N)NC(=O)[C@H](Cc2ccc(-c3ccccc3)cc2)NC(=O)[C@H](C(C)C)NC(=O)[C@H](Cc2c[nH]c3ccccc23)NC(=O)[C@H](CC(=O)O)NC(=O)[C@H](Cc2ccc(O)c([N+](=O)[O-])c2)NC(=O)[C@H](CC(N)=O)NC(=O)CSC[C@@H](C(=O)N[C@@H](C)C(N)=O)NC(=O)[C@H]([C@@H](C)O)NC(=O)[C@H](C(C)C)NC1=O` [Compound 1154] ({CH2CO}-N[Tyr(3-NO2)]DWV[Bip]R[NMeA][dL][Orn]LVTCA-NH2; thioether N-14), the IC50 is 0.03 µM.

On to `CC(C)C[C@@H]1NC(=O)[C@H](Cc2c[nH]c3ccccc23)NC(=O)[C@H](CC(=O)O)NC(=O)[C@H](Cc2ccc(O)cc2)NC(=O)[C@H](Cc2ccccc2)NC(=O)CSC[C@@H](C(=O)NCC(N)=O)NC(=O)[C@H](CO)NC(=O)[C@H](C(C)C)NC(=O)[C@H](CC(C)C)NC(=O)[C@H](CCN)NC(=O)[C@@H](C)NC(=O)[C@H](C)N(C)C(=O)[C@H](C(C)C)NC(=O)[C@H](Cc2ccc(-c3ccccc3)cc2)NC1=O` [Compound 1479] ({CH2CO}-FYDWL[Bip]V[NMeA][dA][Dab]LVSCG-NH2; thioether N-14), for which the IC50 is 0.02 µM.

Regarding `CC(C)C[C@@H]1NC(=O)[C@H](CCN)NC(=O)[C@@H](CC(C)C)NC(=O)[C@H](C)N(C)C(=O)[C@H](CCCNC(=N)N)NC(=O)[C@H](Cc2ccc(-c3ccccc3)cc2)NC(=O)[C@H](C(C)C)NC(=O)[C@H](Cc2c[nH]c3ccccc23)NC(=O)[C@H](CC(=O)O)NC(=O)[C@H](Cc2ccc(OCC(=O)O)cc2)NC(=O)[C@H](CC(N)=O)NC(=O)CSC[C@@H](C(=O)N[C@@H](C)C(N)=O)NC(=O)[C@H]([C@@H](C)O)NC(=O)[C@H](C(C)C)NC1=O` [Compound 1138] ({CH2CO}-NY(Carboxymethyl)DWV[Bip]R[NMeA][dL][Dab]LVTCA-NH2; thioether N-14), the IC50 is 0.07 µM.

Take `CC(C)C[C@@H]1NC(=O)[C@H](Cc2c[nH]c3ccccc23)NC(=O)[C@H](CC(=O)O)NC(=O)[C@H](Cc2ccc(O)cc2)NC(=O)[C@H](CC(N)=O)NC(=O)CSC[C@@H](C(=O)N[C@@H](C)C(N)=O)NC(=O)[C@H](CO)NC(=O)[C@H](C(C)C)NC(=O)[C@H](CC(C)C)NC(=O)[C@H](CC(N)=O)NC(=O)[C@@H](C)NC(=O)[C@H](C)N(C)C(=O)[C@H](C(C)C)NC(=O)[C@H](Cc2ccc(-c3ccccc3)cc2)NC1=O` [Compound 1762] ({CH2CO}-NYDWL[Bip]V[NMeA][dA]NLVSCA-NH2; thioether N-14): the concentration for half-maximal inhibition (IC50) is 0.04 µM.

Source of the values: patent US20240409585A1, “MACROCYCLIC IMMUNOMODULATORS” (priority 2021, published 2024).
